Consider two compounds from US8772031B2, “Composition for reprogramming somatic cells to generate induced pluripotent stem cells, comprising Oct4 in combination with Bmi1 or its upstream regulator, and method for generating induced pluripotent stem cells using the same” (Korea University Research and Business Foundation, priority 2009, dated 2014).

Common to all, as to format: cell-based
Assay [1] relates to Bmi1 expression in mouse embryonic fibroblasts. Description: Bmi1 expression by treatment with Shh or Shh analog (RT-PCR of downstream genes) under neural stem cell-culturing conditions. The note with it: for expression of Gli1 and Bmi1 (RT-PCR) / expression of the Bmi1 target genes p16^Ink4a and p19^Arf (RT-PCR): DMEM/F12+B27+N2+bFGF+EGF; for Sox2 expression level: culture condition for neural stem cells. As for the experimental part:
Mouse embryonic fibroblasts were employed to generate embryonic stem cell-like cells. Embryos were taken from CF1 strain mice on embryonic day 13.5. Cells were cultured in DMEM (high glucose, w/o sodium pyruvate) supplemented with 10% FBS (Fetal bovine serum), 0.1 mM non-essential amino acid, 1% penicillin/streptomycin and 0.1 mM β-mercaptoethanol in tissue culture flasks, after which fibroblasts at the 3rd passage were seeded at a density of 2×10^5 cells/well into 6-well plates.
(§1) The fibroblasts prepared in Example 1 were examined for Bmi1 expression when they were treated with Shh or an analog thereof, such as oxysterol or purmorphamine. FIGS. 9A, 14A and 22A are RT-PCR results showing the effect of Shh (Sonic hedgehog), known as an upstream regulator of Bmi1, or its analogs on the expression of genes downstream thereof.

The subject of assay [2] is mouse embryonic fibroblasts. As to the kind of experiment: Reprogramming of treated fibroblasts into neural stem cell-like cells (morphology, AP staining, immunochemistry). The note with it: neural stem cell-culturing conditions, immunochemistry for SSEA1, Nestin, Sox2. As for the experimental part:
as §1
The induced neural stem cell-like cells were positively analyzed by AP staining and immunochemistry for SSEA1, Nestin and Sox2 (FIGS. 9C, 14C and 22C).

For assay [3], the system named is mouse embryonic fibroblasts. Description: Generation of iPS cells by retroviral Oct4 introduction during treatment with Shh or its analog, then embryonic stem cell culture conditions. Conditions: Oct4 retrovirus three times at 16 hr intervals, treatment for 72 hrs, reprogramming process for 10-14 days.
The subject of assay [4] is adult mouse embryonic fibroblasts. As to the kind of experiment: Establishment of iPS cells (OO-iPS-TTF #1, 2) by Oct4 introduction during treatment with oxysterol. Conditions: oxysterol 0.1 μM and 0.5 μM with Oct4 introduction. An excerpt: The reprogramming method established with mouse embryonic fibroblasts was applied to adult mouse embryonic fibroblasts. […] 00-iPS-TTF #1 and 2 were positively stained with AP and found to express SSEA1, Oct4, Sox2, and Nanog as measured by immunochemical staining assays (FIG. 19A).

Setting [5] is: 0.5 μM or 1 μM of purmorphamine.
Where [6] appears, read: 0.1 μM and 0.5 μM of hydroxycholesterol.

Regarding `c1ccc2c(Oc3nc(Nc4ccc(N5CCOCC5)cc4)c4ncn(C5CCCCC5)c4n3)cccc2c1` [purmorphamine, 2-(1-Naphthoxy)-6-(4-morpholinoanilino)-9-cyclohexylpurine], in assay [1] (setting [5]), the “expression of Gli1 and Bmi1 (RT-PCR)” value was “upregulation”; the “expression of the Bmi1 target genes p16^Ink4a and p19^Arf (RT-PCR)” value was “downregulation”. The Sox2 expression level result in assay [1] is on record as “increase”. Also, the “morphology and neural stem cell markers of the treated cells” value in assay [2] is “morphology similar to that of neural stem cells and express nestin and sox2”. The “appearance of ES cell-like colonies” value in assay [3] is reported as “colonies appeared with the same morphology as ES cells”.

As to `C[C@H](CCCC(C)(C)O)[C@H]1CC[C@H]2[C@@H]3CC=C4C[C@@H](O)CC[C@]4(C)[C@H]3CC[C@]12C` [hydroxycholesterol, 25-hydroxycholesterol], in assay [1] (setting [6]), the “expression of Gli1 and Bmi1 (RT-PCR)” value is on record as “upregulation”; the “expression of the Bmi1 target genes p16^Ink4a and p19^Arf (RT-PCR)” value is “downregulation”. For the same compound, the Sox2 expression level entry in assay [1] is given as “increase”. The “morphology and neural stem cell markers of the treated cells” value in assay [2] is “morphology similar to that of neural stem cells and express nestin and sox2”. The “appearance of ES cell-like colonies” value in assay [3] is “colonies appeared with the same morphology as ES cells”. For the same compound, the “derivation of embryonic stem cell-like cells from adult fibroblasts” value in assay [4] is on record as “allowed the derivation of embryonic stem cell-like cells”.
